How the values were obtained:
[1] = organism: Rattus norvegicus; assay: Myorelaxant activity against KCL-induced contraction of Wistar rat aortic rings; format: functional; settings: Aorta
[2] = tested on: Pancreatic beta cell; assay: Residual insulin release in Wistar rat pancreatic islet beta cells in presence of glucose at 10 uM; format: functional
[3] = tested on: Pancreatic beta cell; assay: Residual insulin release in Wistar rat pancreatic islet beta cells in presence of glucose at 1 uM; format: functional
[4] = tested on: Pancreatic beta cell; assay: Inhibition of insulin release in Wistar rat pancreatic islet beta cells; format: functional, cell-based
[5] = tested on: Pancreatic beta cell; assay: Selectivity ratio, IC50 for Wistar rat pancreatic islet beta cells/EC50 for aortic rings; format: functional

SMILES: Cc1cccc(NC(=O)NC2CC(C)(C)Oc3ccc(Cl)cc32)c1 (stereo not drawn)
- EC50 [1]: > 10 µM
- Activity [2]: 65.8%

SMILES: CC1(C)CC(NC(=O)Nc2ccccc2)c2cc(Cl)ccc2O1 (stereo not drawn)
- EC50 [1]: 7.8 µM
- Activity [2]: 87.7%

SMILES: Cc1ccc(NC(=O)NC2CC(C)(C)Oc3ccc(Br)cc32)cc1 (stereo not drawn)
- EC50 [1]: > 30 µM
- Activity [2]: 72.9%

SMILES: CC1(C)CC(NC(=O)Nc2ccccc2Cl)c2cc(Br)ccc2O1 (stereo not drawn)
- EC50 [1]: > 30 µM
- Activity [2]: 41.8%

SMILES: COc1ccccc1NC(=O)NC1CC(C)(C)Oc2ccc(Br)cc21 (stereo not drawn)
- EC50 [1]: > 10 µM
- Activity [2]: 72.8%

SMILES: Cc1ccccc1NC(=O)NC1CC(C)(C)Oc2ccc(Br)cc21 (stereo not drawn)
- EC50 [1]: > 30 µM
- Activity [2]: 79.5%

SMILES: COc1ccccc1NC(=O)NC1CC(C)(C)Oc2ccc(F)cc21 (stereo not drawn)
- EC50 [1]: > 10 µM
- Activity [2]: 84.4%

SMILES: Cc1ccc(NC(=O)NC2CC(C)(C)Oc3ccc(F)cc32)cc1 (stereo not drawn)
- EC50 [1]: > 30 µM
- Activity [2]: 70.6%

SMILES: Cc1ccccc1NC(=O)NC1CC(C)(C)Oc2ccc(F)cc21 (stereo not drawn)
- EC50 [1]: > 30 µM
- Activity [2]: 79%

SMILES: COc1cccc(NC(=O)NC2CC(C)(C)Oc3ccc(Br)cc32)c1 (stereo not drawn)
- EC50 [1]: > 10 µM
- Activity [2]: 73.5%

SMILES: CC1(C)CC(NC(=O)Nc2ccccc2Cl)c2cc(Cl)ccc2O1 (stereo not drawn)
- EC50 [1]: > 300 µM
- Activity [2]: 40.3%

SMILES: CC1(C)CC(NC(=O)Nc2ccccc2Cl)c2cc(F)ccc2O1 (stereo not drawn)
- EC50 [1]: > 30 µM
- Activity [2]: 51.4%

SMILES: Cc1ccc(NC(=O)NC2CC(C)(C)Oc3ccc(Cl)cc32)cc1 (stereo not drawn)
- EC50 [1]: > 30 µM
- Activity [2]: 69.5%

SMILES: COc1ccccc1NC(=O)NC1CC(C)(C)Oc2ccc(Cl)cc21 (stereo not drawn)
- EC50 [1]: > 10 µM
- Activity [2]: 94.6%

SMILES: CC1(C)CC(NC(=O)Nc2cccc(Cl)c2)c2cc(Br)ccc2O1 (stereo not drawn)
- EC50 [1]: > 30 µM
- Activity [3]: 91.5%
- IC50 [4]: 4.06 µM
- Selectivity ratio [5]: <0.14
- Activity [2]: 28.6%

SMILES: COc1cccc(NC(=O)NC2CC(C)(C)Oc3ccc(F)cc32)c1 (stereo not drawn)
- EC50 [1]: > 10 µM
- Activity [2]: 66.6%

SMILES: CC1(C)CC(NC(=O)Nc2cccc(Cl)c2)c2cc(F)ccc2O1 (stereo not drawn)
- EC50 [1]: > 300 µM
- Activity [3]: 86%
- IC50 [4]: 3.67 µM
- Selectivity ratio [5]: <0.01
- Activity [2]: 28%

SMILES: COc1cccc(NC(=O)NC2CC(C)(C)Oc3ccc(Cl)cc32)c1 (stereo not drawn)
- EC50 [1]: > 10 µM
- Activity [2]: 84%

SMILES: Cc1ccccc1NC(=O)NC1CC(C)(C)Oc2ccc(Cl)cc21 (stereo not drawn)
- EC50 [1]: > 10 µM
- Activity [2]: 85%

SMILES: CC1(C)CC(NC(=O)Nc2ccc(Cl)cc2)c2cc(F)ccc2O1 (stereo not drawn)
- EC50 [1]: > 30 µM
- Activity [3]: 91.4%
- IC50 [4]: 3.6 µM
- Selectivity ratio [5]: <0.12
- Activity [2]: 22.8%

SMILES: CC1(C)Oc2ccc(C#N)cc2C(N2CCCC2=O)C1O (racemic) [CROMAKALIM]
- EC50 [1]: 0.13 µM
- Activity [3]: 95.3%
- IC50 [4]: > 100 µM
- Selectivity ratio [5]: >769.23
- Activity [2]: 94.4%

SMILES: CC1(C)CC(NC(=O)Nc2ccccc2)c2cc(F)ccc2O1 (stereo not drawn)
- EC50 [1]: 17.1 µM
- Activity [2]: 83.8%

SMILES: Cc1cccc(NC(=O)NC2CC(C)(C)Oc3ccc(F)cc32)c1 (stereo not drawn)
- EC50 [1]: > 30 µM
- Activity [2]: 75.2%

SMILES: CC1(C)CC(NC(=O)Nc2ccccc2)c2cc(Br)ccc2O1 (stereo not drawn)
- EC50 [1]: 2.3 µM
- Activity [2]: 75.9%

SMILES: CC1(C)CC(NC(=O)Nc2ccc(Cl)cc2)c2cc(Br)ccc2O1 (stereo not drawn)
- EC50 [1]: > 300 µM
- Activity [3]: 92.2%
- IC50 [4]: 3.85 µM
- Selectivity ratio [5]: <0.01
- Activity [2]: 25.7%

SMILES: Cc1cccc(NC(=O)NC2CC(C)(C)Oc3ccc(Br)cc32)c1 (stereo not drawn)
- EC50 [1]: > 10 µM
- Activity [2]: 63.4%

SMILES: COc1ccc(NC(=O)NC2CC(C)(C)Oc3ccc(F)cc32)cc1 (stereo not drawn)
- EC50 [1]: 15.5 µM
- Activity [2]: 89%

SMILES: COc1ccc(NC(=O)NC2CC(C)(C)Oc3ccc(Br)cc32)cc1 (stereo not drawn)
- EC50 [1]: > 10 µM
- Activity [2]: 79.2%

SMILES: COc1ccc(NC(=O)NC2CC(C)(C)Oc3ccc(Cl)cc32)cc1 (stereo not drawn)
- EC50 [1]: > 30 µM
- Activity [2]: 79.3%
